Measurements reported in patent US20170014477A1, “FREE RAPTOR REDUCES AGING- AND OBESITY-INDUCED FATTY LIVER” (The Trustees of Columbia University in the City of New York, priority 2015, published 2017).

Legend:
[1] = tested on: PHLPP2; test: PHLPP2 phosphorylation (Phos-tag mobility shift; IP and phospho-PKA substrate immunoblot) in hepatocytes; type: cell-based, mouse
Excerpt: To investigate the effect of PKA on PHLPP2 phosphorylation in primary hepatocytes, either WT or S1119/1210A mutant of PHLPP2 was immunoprecipitated from cell extracts treated with glucagon or forskolin, and then subjected to immunoblot analysis with an antibody specific for phosphorylated PKA substrate proteins.

[2] = tested on: PHLPP2; test: Western blot of PHLPP2 levels in primary hepatocytes / Hepa1c1c7 cells; type: cell-based, mouse; settings: short- or long-term treatment, Rapamycin (20 nM), Torin1 (250 nM)
Excerpt: The GFP, Raptor and PHLPP1/2 adenoviruses have been described (Miyamoto et al., 2010; Pajvani et al., 2013). The HA-Flag-PHLPP2 adenovirus was constructed by inserting a Flag sequence into HA-PHLPP2 vector (Addgene #22403, courtesy of Alexandra Newton) and adenoviruses encoding HA-Flag-PHLPP2 generated by Welgen, Inc. (Worcester, Mass.). Mouse shPhlpp1 or 2 target sequences were selected among three candidate sequences, respectively and adenoviruses encoding shPhlpp1 or 2 generated by Welgen, Inc. For in vivo studies, we injected […] or 2.5×10^8 purified viral particles per g body weight; we performed metabolic analysis on days 3-5 and euthanized the mice at day 8 or 10 after injection. Infection with adenovirus in primary hepatocytes or Hepa1c1c7 cells was performed at 2.5, 5, or 10 multiplicity of infection (MOI).
We isolated and cultured primary mouse hepatocytes as previously described (Kim et al., 2012). For inhibitor experiments, we treated hepatocytes with 20 nM rapamycin (Cell Signaling), 250 nM Torin1, or vehicle for either 1 h or 24 h.
Tissues and cells were lysed in 0.3% CHAPS lysis buffer (Kim et al., 2002) unless otherwise stated, and whole cell lysates obtained by centrifugation. […]

[3] = tested on: free Raptor; test: DSS crosslinking assay for free Raptor in hepatocytes and hepatoma cells; type: cell-based, mouse
Method: Liver was lysed in 1% Triton X-100 lysis buffer (Kim et al., 2002) with or without 2.5 mg/ml DSP or DSS, and incubated for 2 h on ice. Crosslinking was quenched with 1 M Tris-HCl (pH 7.5) for 30 min on ice. For in vitro crosslinking assays, DSP or DSS were added to a final concentration of 1 mg/ml culture medium, and quenched by Tris-HCl as above. Equal protein (BCA assay, Thermo) was then subjected to Western blot, with or without IP.

[4] = target: T1, PH domain leucine-rich repeat protein phosphatase 2 (PHLPP2), endogenous (mouse, UniProt Q8BXA7 1-1320); test: anti-PHLPP2 IP from primary hepatocytes and Hepa1c1c7 cells with or without MG-132, Western blot (FIG. 19i, FIG. 28j)
T1 construct: Endogenous protein, immunoprecipitated with anti-PHLPP2 or co-precipitated with anti-Akt; also called endogenous PHLPP2
T1 sequence (looked up): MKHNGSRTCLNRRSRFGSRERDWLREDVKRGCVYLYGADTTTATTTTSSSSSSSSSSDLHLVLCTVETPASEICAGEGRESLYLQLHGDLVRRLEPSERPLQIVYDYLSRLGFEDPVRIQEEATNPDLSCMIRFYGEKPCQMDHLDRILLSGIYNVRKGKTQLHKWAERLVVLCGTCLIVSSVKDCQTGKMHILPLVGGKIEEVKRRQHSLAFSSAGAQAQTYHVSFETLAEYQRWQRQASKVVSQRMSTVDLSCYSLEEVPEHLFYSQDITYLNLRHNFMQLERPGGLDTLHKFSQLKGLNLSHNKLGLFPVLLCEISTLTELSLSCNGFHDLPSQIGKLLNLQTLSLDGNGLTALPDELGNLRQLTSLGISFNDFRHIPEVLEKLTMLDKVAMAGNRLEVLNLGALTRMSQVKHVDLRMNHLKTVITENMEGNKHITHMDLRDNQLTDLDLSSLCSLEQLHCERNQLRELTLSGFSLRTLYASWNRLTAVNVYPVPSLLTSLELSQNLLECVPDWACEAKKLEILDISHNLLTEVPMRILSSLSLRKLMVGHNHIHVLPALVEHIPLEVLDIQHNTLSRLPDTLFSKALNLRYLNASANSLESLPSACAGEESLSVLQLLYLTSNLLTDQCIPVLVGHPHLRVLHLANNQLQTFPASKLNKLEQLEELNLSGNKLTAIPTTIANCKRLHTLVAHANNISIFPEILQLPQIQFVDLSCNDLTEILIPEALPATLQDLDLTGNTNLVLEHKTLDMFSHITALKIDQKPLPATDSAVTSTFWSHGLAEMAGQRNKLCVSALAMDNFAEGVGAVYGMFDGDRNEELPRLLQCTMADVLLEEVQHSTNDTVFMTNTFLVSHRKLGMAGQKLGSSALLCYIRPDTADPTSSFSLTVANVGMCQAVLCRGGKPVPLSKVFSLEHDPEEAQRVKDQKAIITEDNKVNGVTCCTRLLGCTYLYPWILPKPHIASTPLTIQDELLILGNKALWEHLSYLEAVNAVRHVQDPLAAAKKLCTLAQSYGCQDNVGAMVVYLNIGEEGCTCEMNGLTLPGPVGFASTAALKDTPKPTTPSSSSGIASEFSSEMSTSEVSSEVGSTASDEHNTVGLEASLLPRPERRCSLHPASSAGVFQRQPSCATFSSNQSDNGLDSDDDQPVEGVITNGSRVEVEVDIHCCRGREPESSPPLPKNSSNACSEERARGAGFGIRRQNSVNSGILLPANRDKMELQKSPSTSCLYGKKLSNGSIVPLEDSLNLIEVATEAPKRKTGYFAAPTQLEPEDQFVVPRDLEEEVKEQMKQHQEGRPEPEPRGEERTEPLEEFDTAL

Molecule: O=S(=O)(NCCNC/C=C/c1ccc(Br)cc1)c1cccc2cnccc12 [H89]
- forskolin-mediated PHLPP2 phosphorylation ([1]; pretreatment with PKA inhibitor): reduced

Molecule: CCC(=O)N1CCN(c2ccc(-n3c(=O)ccc4cnc5ccc(-c6cnc7ccccc7c6)cc5c43)cc2C(F)(F)F)CC1 [Torin1]
- decrease of basal or Raptor-increased PHLPP2 levels [2]: neither

Molecule: glucagon
- PKA-mediated phosphorylation of WT PHLPP2 ([1]; primary hepatocytes, IP, phosphorylated PKA substrate antibody, not S1119A/S1210A mutant): robustly increased

Molecule: insulin
- free Raptor levels ([3]; brief exposure): ineffectual
- free Raptor levels ([3]; prolonged high-dose treatment to induce insulin resistance, primary hepatocytes or Hepa1c1c7 cells): reduced

B1: β-TrCP (beta-transducin repeat-containing protein) (other, mouse, UniProt Q3ULA2 1-605, looked up)
chain: MDPAEAVLQEKALKFMCSMPRSLWLGCSSLADSMPSLRCLYNPGTGALTAFQNSSEREDCNNGEPPRKIIPEKNSLRQTYNSCARLCINQETVCLTSTAMKTENCVAKAKLANGTSSMIVPKQRKLSASYEKEKELCVKYFEQWSESDQVEFVEHLISQMCHYQHGHINSYLKPMLQRDFITALPARGLDHIAENILSYLDAKSLCAAELVCKEWYRVTSDGMLWKKLIERMVRTDSLWRGLAERRGWGQYLFKNKPPDENAPPNSFYRALYPKIIQDIETIESNWRCGRHSLQRIHCRSETSKGVYCLQYDDQKIVSGLRDNTIKIWDKSTLECKRILTGHTGSVLCLQYDERVIITGSSDSTVRVWDVNAGEMLNTLIHHCEAVLHLRFNNGMMVTCSKDRSIAVWDMASPTDITLRRVLVGHRAAVNVVDFDDKYIVSASGDRTIKVWNTSTCEFVRTLNGHKRGIACLQYRDRLVVSGSSDNTIRLWDIECGACLRVLEGHEELVRCIRFDNKRIVSGAYDGKIKVWDLMAALDPRAPAGTLCLRTLVEHSGRVFRLQFDEFQIVSSSHDDTILIWDFLNDPAAHAEPPRSPSRTYTYISR
notes: E3 ligase substrate recognition subunit of the SCF complex; endogenous protein in mouse cells
- binding result [4]: binds
